# Laboratory results reported in patent publication US4474761A, “Oligopeptides with specific inhibiting properties of collagen induced aggregation, process for preparing the same and pharmaceutical compositions containing them” (Choay S.A., priority 1980, dated 1984).
# Where no end group is shown, it is not given here. [ ]: non-standard residue; d: D form. Hyp = O=C(O)[C@@H]1C[C@@H](O)CN1
# Test system: platelet membranes
# Experiment: Linkage of tritiated nonapeptide to platelet membranes (filtration)
# Type: binding
# Conditions: for Linkage (%) after dissociation time: Table IX
# Procedure: The study of the nature of the interaction between type III collagen and platelets is carried out in the presence of tritiated (labelled) nonapeptide of formula: […]
# The complete platelets or the platelet membranes solubilized in triton (0.15%) are incubated in a physiological buffer of the type described above in the serotonin release test (in a total volume of 0.2 ml) at a temperature of 37° C. for 15 minutes. The incubation is carried out in presence of tritiated nonapeptide the specific activity of which is of […].
# The nonapeptide fixed or linked to the platelet or to the membranes is separated from the free nonapeptide by filtration of the incubation medium through multiporous membranes having porosities of 0.8μ and 0.45μ respectively. The radio activity is directly determined on the filters and the percentage of linkages determined according to the following formula: [formula]
# (c) Table VIII relates to the linkage specificity. It represents the linkage percentages between the platelet membranes and different peptides of the invention in the presence of various aggregation inducers (15 ng of peptide, 30 μg of platelet membrane).
# The specificity of the linkage is assessed by the total displacement of the corresponding radio-activity by an excess of non labelled peptide of the invention. This excess corresponds to an amount of 100 to 1000 times more than the amount of non labelled peptide which is necessary to induce adhesion of the platelets.
# Said reversibility has been studied in the presence of two concentrations of labelled (nona)peptide which are respectively of 3 and 6 ng, for 30 μg of platelet membranes. After the binding of the labelled nonapeptide to the membranes, the incubation media are diluted to the 80 volumes:
# in the absence of non labelled (nona)peptide;
# and in the presence of an excess of non labelled (nona)peptide (as indicated under c) for the reversibility test).
# The percentage of linkage is then determined as a function of an incubation duration ranging from 0 to 15 minutes.
# The reversibility is measured by the dissociation factor and the dissociation time.
compound,measurement,setting,value
"Nc1ncnc2c1ncn2[C@@H]1O[C@H](COP(=O)(O)OP(=O)(O)O)[C@@H](O)[C@H]1O [ADP, reference compound]",Linkage % of Nonapeptide H^3 in presence of agent,"Table VIII, Nonapeptide H^3 15 ng, platelet membranes 30 μg, agent 10^-2 M",4.3%
"CNCC(O)c1ccc(O)c(O)c1 (stereo not shown) [Adrenaline, reference compound]",Linkage % of Nonapeptide H^3 in presence of agent,"Table VIII, Nonapeptide H^3 15 ng, platelet membranes 30 μg, agent 100 μg",5.4%
"CCCCC/C=C\C/C=C\C/C=C\C/C=C\CCCC(=O)O [Arachidonic acid, reference compound]",Linkage % of Nonapeptide H^3 in presence of agent,"Table VIII, Nonapeptide H^3 15 ng, platelet membranes 30 μg, agent 6 nM",4.1%
GK[Hyp]GE[Hyp]GPK [Nonapeptide H^3],Linkage (%) after dissociation time,"Nonapeptide H^3 3 ng, 30 μg membranes, dilution 1/80, 0'",3.2%
same,Linkage (%) after dissociation time,"Nonapeptide H^3 3 ng, dilution 1/80 + 100 μg of nonapeptide, 0'",3.2%
same,Linkage (%) after dissociation time,"Nonapeptide H^3 3 ng, dilution 1/80 + 100 μg of nonapeptide, 2'",1%
same,Linkage (%) after dissociation time,"Nonapeptide H^3 3 ng, dilution 1/80 + 100 μg of nonapeptide, 10'",0.5%
same,Linkage (%) after dissociation time,"Nonapeptide H^3 3 ng, dilution 1/80 + 100 μg of nonapeptide, 15'",0.1%
same,Linkage (%) after dissociation time,"Nonapeptide H^3 3 ng, dilution 1/80, 2'",1.75%
same,Linkage (%) after dissociation time,"Nonapeptide H^3 3 ng, dilution 1/80, 5'",1.55%
same,Linkage (%) after dissociation time,"Nonapeptide H^3 3 ng, dilution 1/80, 10'",1%
same,Linkage (%) after dissociation time,"Nonapeptide H^3 3 ng, dilution 1/80, 15'",0.6%
same,Linkage (%) after dissociation time,"Nonapeptide H^3 6 ng, dilution 1/80 + 100 μg of nonapeptide, 0'",5.9%
same,Linkage (%) after dissociation time,"Nonapeptide H^3 6 ng, dilution 1/80 + 100 μg of nonapeptide, 2'",3%
same,Linkage (%) after dissociation time,"Nonapeptide H^3 6 ng, dilution 1/80 + 100 μg of nonapeptide, 10'",1.5%
same,Linkage (%) after dissociation time,"Nonapeptide H^3 6 ng, dilution 1/80 + 100 μg of nonapeptide, 15'",1%
same,Linkage (%) after dissociation time,"Nonapeptide H^3 6 ng, dilution 1/80, 0'",5.9%
same,Linkage (%) after dissociation time,"Nonapeptide H^3 6 ng, dilution 1/80, 2'",4.8%
same,Linkage (%) after dissociation time,"Nonapeptide H^3 6 ng, dilution 1/80, 5'",3%
same,Linkage (%) after dissociation time,"Nonapeptide H^3 6 ng, dilution 1/80, 10'",2.4%
same,Linkage (%) after dissociation time,"Nonapeptide H^3 6 ng, dilution 1/80, 15'",1.5%
same,Linkage (%),"Table VI, Nonapeptide H^3 3 ng, proteic concentration 20 μg",2.1%
same,Linkage (%),"Table VI, Nonapeptide H^3 3 ng, proteic concentration 40 μg",3.8%
same,Linkage (%),"Table VI, Nonapeptide H^3 3 ng, proteic concentration 60 μg",4.3%
same,Linkage (%),"Table VI, Nonapeptide H^3 3 ng, proteic concentration 80 μg",4.6%
same,Linkage (%),"Table VI, Nonapeptide H^3 3 ng, proteic concentration 100 μg",5.3%
same,Linkage (%),"Table VI, Nonapeptide H^3 30 ng, proteic concentration 20 μg",3.5%
same,Linkage (%),"Table VI, Nonapeptide H^3 30 ng, proteic concentration 40 μg",4.3%
same,Linkage (%),"Table VI, Nonapeptide H^3 30 ng, proteic concentration 60 μg",5%
same,Linkage (%),"Table VI, Nonapeptide H^3 30 ng, proteic concentration 80 μg",5.8%
same,Linkage (%),"Table VI, Nonapeptide H^3 30 ng, proteic concentration 100 μg",6.15%
same,Linkage (%),"Table VI, Nonapeptide H^3 30 ng, proteic concentration 200 μg",10.4%
same,Linkage (%),"Table VI, Nonapeptide H^3 30 ng, proteic concentration 400 μg",13%
same,Linkage (%),"Table VI, Nonapeptide H^3 30 ng, proteic concentration 450 μg",13.8%
same,Linkage (%),"Table VII, Nonapeptide H^3 3 ng",1.6%
same,Linkage (%),"Table VII, Nonapeptide H^3 6 ng",3.5%
same,Linkage (%),"Table VII, Nonapeptide H^3 12 ng",5.5%
same,Linkage (%),"Table VII, Nonapeptide H^3 60 ng",7.5%
same,Linkage (%),"Table VII, Nonapeptide H^3 300 ng",10.5%
same,Linkage (%),"Table VIII, Nonapeptide H^3 15 ng, platelet membranes 30 μg, agent 0",4%
